Where no end group is shown, it is not given here.
Legend:
[1] = system: RAW 264.7 (Mouse leukaemic monocyte macrophage cell line) cells; experiment: Phagocytosis assay (Fluorescein-labeled Escherichia coli, flow cytometry); format: cell-based; conditions: 10 micrograms per ml
Description: RAW 264.7 (Mouse leukaemic monocyte macrophage cell line) cells were obtained from ATCC and grown in RPMI 1640 medium containing 10% FBS. Cells were incubated in 12×75 mm tubes at 37° C. with test peptides—10 micrograms per ml—for 30 min prior to adding Fluorescein-labeled Escherichia coli bacteria as the agent to be ingested. After the cells were incubated for additional 60 min at 37° C. and allowed to ingest the Fluorescein-labeled Escherichia coli bacteria, cells were fixed with 1% paraformaldehyde. The samples were then analyzed by flow cytometry to determine the amount of phagocytosis as a function of brightness (the greater the phagocytic activity, the more fluorescence in the macrophage population). Data are reported as % positive and the mean fluorescence intensity (MFI) of positively stained cells.

HCMV strain AD169 = experiment: HCMV plaque formation assay in MRC-5 cells; format: cell-based; conditions: 10 micrograms per ml, 7-10 days
Text: Ganciclovir was used as positive control.

[2] = system: Primary Human endothelial cells (HUVEC); experiment: Endothelial cell migration assay; format: cell-based; conditions: 10 micrograms per ml, 22 hours
Description: Thereafter, designated concentration of testing peptides—10 micrograms per ml—was added in duplicate wells.

HUVEC = experiment: Endothelial tube formation assay; format: cell-based, human; conditions: 10 micrograms per ml, 20 hours
Text: Positive control wes vehicle only.

murine spleen cells = experiment: Th1/Th2 cytokine profiling assay (Ovalbumin-restimulated spleen cells, CBA kit); format: cell-based, Balb/c mice; conditions: 10 micrograms per ml, 72 hours
[3] = system: hepatitis B virus (HBV) ayw strain; experiment: HBV experimental assay system, HepG2-2.2.15, secreted HBV DNA by TaqMan PCR; format: cell-based; conditions: 10 micrograms per ml; HepG2-2.2.15, six days

| Substance | induction of phagocytosis as compared to the virus control experiment [1] | inhibition of HCMV plaque formation as compared to the virus control experiment (HCMV strain AD169) | inhibition of the migration of human endothelial cells [2] | inhibition of the tube formation of human endothelial cells (HUVEC) | production of IFN-γ (decreased by) (murine spleen cells) | production of IL-2 (decreased by) (murine spleen cells) | production of IL-4 (induced by) (murine spleen cells) | production of IL-5 (decreased by) (murine spleen cells) | production of TNF-alpha (change) (murine spleen cells) | inhibition of HBV replication as compared to the virus control infection [3] |
| --- | --- | --- | --- | --- | --- | --- | --- | --- | --- | --- |
| Lys-Trp-Lys-Leu-Phe-Lys-Lys-Ile-Glu-Lys-Val-Gly-Gln-Asn-Ile-Arg-Asp-Gly-Ile-Ile-Lys-Ala-Gly-Pro-Ala-Val-Ala-Val-Val-Gly-Gln-Ala-Thr-Gln-Ile-Ala-Lys-NH2 (KWKLFKKIEKVGQNIRDGIIKAGPAVAVVGQATQIAK-NH2) [Peptide 2] | did not induce phagocytosis | 2.1% | 15% | 10% | 65.6% | 42.7% | did not significantly change | 37.0% | did not significantly change | 10.5% |
| Ac-Ser-Asp-Lys-Pro-Asp-Met-Ala-Glu-Ile-Glu-Lys-Phe-Asp-Lys-Ser-Lys-Leu-Lys-Lys-Thr-Glu-Thr-Gln-Glu-Lys-Asn-Pro-Leu-Pro-Ser-Lys-Glu-Thr-Ile-Glu-Gln-Glu-Lys-Gln-Ala-Gly-Glu-Ser-OH (SDKPDMAEIEKFDKSKLKKTETQEKNPLPSKETIEQEKQAGES; printed: Ser-Asp-Lys-Pro-Asp-Met-Ala-Glu-Ile-Glu-Lys-Phe-Asp-Lys-Ser-Lys-Leu-Lys-Lys-Thr-Glu-Thr-Gln-Glu-Lys-Asn-Pro-Leu-Pro-Ser-Lys-Glu-Thr-Ile-Glu-Gln-Glu-Lys-Gln-Ala-Gly-Glu-Ser-) [Peptide 1] | 45.7% | – | – | – | 52.7% | did not significantly change | 31.6% | did not significantly change | did not significantly change | no effect |

Reference: patent publication US20100190713A1, “USE OF THE PEPTIDE THYMOSIN BETA 4 ALONE OR IN COMBINATION WITH CECROPIN A AS A THERAPEUTIC AGENT” (priority 2007, published 2010)
